Measured values published in ChEMBL document CHEMBL5321267, “Phomactinine, the First Nitrogen-Bearing Phomactin, Produced by Biatriospora sp. CBMAI 1333” (J Nat Prod, 2023).
Activity calls are given as the source filed them. No cut-off for these calls is given here.

Target: Platelet-activating factor receptor (Homo sapiens) (UniProt P25105)
Experiment: Antagonist activity at PAFR in human KB cells assessed as inhibition of cPAF induced IL-8 release at 10 to 25 uM preincubated for 24 hrs followed by cPAF stimulation and measured after 6 hrs by ELISA method
Assay type: functional, cell-based
Settings: filed as antagonist, dose 10-25 µM, time 30.0 hrs

Platelet-activating factor receptor (Homo sapiens), sequence (P25105 whole entry): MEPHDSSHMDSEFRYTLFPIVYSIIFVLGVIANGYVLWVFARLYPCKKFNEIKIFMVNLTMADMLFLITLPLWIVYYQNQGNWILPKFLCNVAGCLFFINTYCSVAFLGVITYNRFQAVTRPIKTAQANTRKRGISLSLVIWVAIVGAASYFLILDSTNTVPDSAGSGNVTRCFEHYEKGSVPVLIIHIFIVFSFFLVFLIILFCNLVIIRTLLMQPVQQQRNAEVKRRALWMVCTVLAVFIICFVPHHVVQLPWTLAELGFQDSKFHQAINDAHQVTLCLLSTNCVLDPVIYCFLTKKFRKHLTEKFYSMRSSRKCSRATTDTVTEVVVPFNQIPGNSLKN

With `C/C1=C\CC[C@@]2(C)O[C@@H]2[C@@]23C(=O)NC=C2[C@@](C)(CC1)[C@H](C)C[C@@H]3O` the inhibition was “Active”.
